From article PMC7734590, “Identification of a Selective RelA Inhibitor Based on DSE-FRET Screening Methods” (International Journal of Molecular Sciences, 2020) come the findings set out here.

In one test the target is T1, GST–p52 (Homo sapiens, UniProt Q00653).
T1 sequence (Q00653 1-454 limits assumed): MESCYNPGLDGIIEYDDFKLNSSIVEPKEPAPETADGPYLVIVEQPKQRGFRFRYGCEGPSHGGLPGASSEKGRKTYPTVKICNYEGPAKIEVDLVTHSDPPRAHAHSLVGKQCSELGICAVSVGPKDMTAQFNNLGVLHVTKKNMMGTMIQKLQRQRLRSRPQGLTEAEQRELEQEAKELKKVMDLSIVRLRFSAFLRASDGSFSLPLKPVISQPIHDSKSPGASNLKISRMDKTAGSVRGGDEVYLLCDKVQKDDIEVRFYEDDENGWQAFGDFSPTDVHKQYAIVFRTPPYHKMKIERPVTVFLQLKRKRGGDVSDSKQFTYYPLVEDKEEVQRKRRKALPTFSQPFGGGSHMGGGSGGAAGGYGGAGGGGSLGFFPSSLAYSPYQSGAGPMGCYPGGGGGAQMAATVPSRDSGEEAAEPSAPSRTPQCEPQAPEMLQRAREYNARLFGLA
In words: SPR analysis with immobilized GST–p52. The test is classed as binding. On the procedure:
SPR biosensor measurements were performed at 25 °C using a Biacore T100 instrument (GE Healthcare, Chicago, IL, USA). […] Next, 4 µg/mL GST–RelA or 5 µg/mL GST (GE Healthcare) was flowed through the channel (5 μL/min, for 180 s) and captured on the sensor chip. […] Dissociation constants were computed by fitting to a 1:1 interaction model using Biacore (GE Healthcare). Stoichiometry was calculated based on the theoretical Rmax value, where the theoretical Rmax = MWA/MWL RL SM (A, analyte; L, ligand; RL, immobilization level of ligand RU; SM, stoichiometry).
For orientation: In SPR one partner is held on a chip, and binding of the other changes the refractive index at the surface.

The subject of test [1] is NF-κB–DNA complexes in PK8 nuclear extract. The test is described as follows: EMSA with nuclear extracts from TNF-α-treated PK8 cells. The test is classed as biochemical, human. The conditions noted are these: 500 µM A55. As to the method:
(§1) For EMSA using nuclear extract, PK8 cells were treated with TNF-α (50 ng/mL) for 10 min before nuclear protein extraction. The cells were washed with ice-cold phosphate-buffered saline (PBS), followed by buffer A (10 mM HEPES–NaOH, pH 7.9, 10 mM KCl, 1.5 mM MgCl2, 0.5 mM DTT, and 0.5 mM phenylmethanesulfonyl fluoride (PMSF)). After 15 min on ice, the cell suspension was centrifuged at 4 °C for 3 min at 2000 rpm, and the resultant cell pellets were resuspended in buffer A. Cells were homogenized using Dounse homogenizer type A (tight, 50 stroke) on ice. Homogenates were centrifuged at 4 °C for 10 min at 5000 rpm, and the resultant nuclear protein pellets were resuspended in buffer C (20 mM HEPES–NaOH pH 7.9, 600 mM KCl, 1.5 mM MgCl2, 25% glycerol, 0.2 mM EDTA, 0.5 mM DTT, and 0.5 mM PMSF). The nuclear proteins were incubated for 1 h on ice with intermittent tapping followed by 15 min of centrifugation at 18,000 rpm (4 °C). The supernatants were dialyzed using a Slide-A-Layzer Dialysis cassette 3500MW (Thermo: 66110) with buffer D (20 mM HEPES–NaOH pH 7.9, 100 mM KCl, 20% glycerol, 0.2 mM EDTA, 0.5 mM DTT, and 0.5 mM PMSF). The dialysis products were then aliquoted, snap-frozen, and stored at −80 °C.
In general terms: A gel shift assay detects complexes by their altered migration in electrophoresis.

Test [2] deals with T2, NF-κB–DNA complexes in PK8 nuclear extract.
T2 construct: nuclear extracts from tumor necrosis factor (TNF)-α-treated PK8 cells; endogenous in cells; host or cells: PK8 (human pancreatic carcinoma), TNF-α 50 ng/mL for 10 min, nuclear extract
Described as above. The class given is biochemical, human. The conditions noted are these: TNF-α 50 ng/mL 10 min. On the procedure: as §1

Molecules are shown by their SMILES.

In general, Kd refers to a measure of binding affinity in units of concentration. Read a high Kd as lower affinity. Regarding `Cc1cc(O)n(CC(=O)O)c(=O)c1C(N)=O` [A55, 2-(3-carbamoyl-6-hydroxy-4-methyl-2-oxopyridin-1(2H)-yl) acetic acid], binding on GST–p52 was put at a Kd of 1.27 µM. The compound also yielded an Rmax at GST–p52 (GST–p52, 3.125–100 µM A55) of 11.4 RU. The compound further gave an Rmax GST-p52 on GST–p52 (Run 1, 100 uM - […], theoretical Rmax 3.4) of 11.4 RU. Also, the “EMSA band shift, other protein–DNA complexes (lower band)” value in test [1] was “did not affect the lower band”. Besides, the “EMSA band shift, RelA–DNA complex (upper band)” value in test [2] was “Only the upper band disappeared”.
